Usually pKa stands for the pH at which an ionisable group is half protonated.

SMILES strings stand for the structures. Marks after values point to notes of the source that are not given here.

The text below walks through data of PMC9000575, “Solution Equilibrium Studies on Salicylidene Aminoguanidine Schiff Base Metal Complexes: Impact of the Hybridization with L-Proline on Stability, Redox Activity and Cytotoxicity” (Molecules, 2022).

What all share (assay type): physicochemical
Series [1] can be described thus: stability constants of Cu(II) complexes from deconvolution of EPR spectra. The following applies: water, room temperature, I = 0.10 M (KCl). Here is the method:
All EPR spectra were recorded with a BRUKER EleXsys E500 spectrometer (microwave frequency 9.54 GHz, microwave power 13 mW, modulation amplitude 5 G, modulation frequency 100 kHz, Bruker BioSpin Corporation, Billerica, MA, USA) at 77 K for the Cu(II)—SISC complexes and at room temperature for the Cu(II)—Pro-SISC-Me species. EPR spectra were recorded at different pH values at two metal-to-ligand concentration ratios: 0.25 mM Cu(II) and 0.25 mM or 0.50 mM SISC in 30% DMSO/water solution, and 1.0 mM Pro-SISC-Me and 1.0 mM or 0.5 mM Cu(II) in water. The ionic strength was adjusted with KCl (I = 0.1 M). KOH solution was added to the stock solution to change the pH between pH = 2.5–12.5, which was measured with a Radiometer PHM240 pH/ion Meter equipped with a Metrohm 6.0234.100 glass electrode. The isotropic EPR spectra were recorded at room temperature in a circulating system, and a Heidolph Pumpdrive 5101 peristaltic pump was used to circulate the solution from the titration vessel through a capillary tube into the cavity of the instrument. For the anisotropic EPR spectra, a pH titration was performed outside of the cavity and at selected pH values, and 200 μL samples were transferred from the titration vessel into EPR tubes and the spectra were recorded in a Dewar containing liquid nitrogen.
The anisotropic EPR spectra were analyzed with the EPR program. […]

Series [2] in a line: proton dissociation constants by pH-potentiometry. The following applies: for pK1 (H3L2+) / pK2 (H2L+) / pK3 (HL): Pro-SISC-Me; for pK1 (H3L2+) / pK2 (H2L+) / pK3 (HL) / pK1 (H2L+) / pK2 (HL): pH-pot.; for fraction present as H2L+ at pH 7.4 / fraction present as HL at pH 7.4: based on the pKa values; for fraction present as HL at pH 7.4: HL neutral (zwitter ionic for Pro-SISC-Me); for pK1 (H2L+) / pK2 (HL): SISC. The protocol:
The pH-potentiometric measurements for the determination of the proton dissociation constants of the ligands and the overall stability constants of the metal complexes were carried out at 25.0 ± 0.1 °C in water or in 30% (v/v) DMSO/H2O as solvent and at an ionic strength of 0.10 M (KCl). The titrations were performed with carbonate-free KOH solution of known concentration (0.10 M). The concentrations of the base and the HCl were determined by pH-potentiometric titrations. An Orion 710A pH-meter equipped with a Metrohm combined electrode (type 6.0234.100), and a Metrohm 665 Dosimat burette were used for the titrations. […] The average water ionization constant pKw was 13.76 ± 0.05 (water) or 14.52 ± 0.05 (30% (v/v) DMSO/H2O). The pH-potentiometric titrations were performed in the pH range 2.0–12.5. The initial volume of the samples was 10.0 mL. The ligand concentration was 2 mM and metal ion-to-ligand ratios of 1:1–1:3 were used. The accepted fitting of the titration curves was always less than 0.01 mL. Argon was always passed over the solutions during the titrations. The exact concentration of the ligand stock solutions together with the proton dissociation constants were determined by pH-potentiometric titrations with the use of the computer program HYPERQUAD [44]. It was also utilized to establish the stoichiometry of the complexes and to calculate the stability constants (β(MpLqHr)). β(MpLqHr) is defined for the general equilibrium pM + qL + rH ⇋ MpLqHr as β(MpLqHr) = [MpLqHr]/[M]^p[L]^q[H]^r, where M denotes the metal ion and L the completely deprotonated ligand. In all calculations exclusively, titration data were used from experiments in which no precipitate was visible in the reaction mixture.

The nature of series [3]: proton dissociation constants by 1H NMR titration. Here is the method:
^1H NMR spectra recorded for SISC in 30% (v/v) d6-DMSO/H2O (Figure S3) clearly show two deprotonation steps and all the CH protons are sensitive to the changes of the pH. Similarly, the changes in the chemical shifts of the peaks of the aromatic CH and the CH=N protons indicate two steps in the ^1H NMR spectra of Pro-SISC-Me recorded in water (Figure 3a), thus two pKa values were calculated (pK2, pK3 in Table 1). However, this is only true for the major species identified as the E isomer (Figure 3b), while for the other isomer (Z, Figure 3c) only one pKa (7.55 ± 0.02) could be determined. The E and Z geometric isomers are the consequence of the C=N double bond. […] Based on the integrals of the CH=N peaks, the fraction of the E isomer is 86% at pH < 6.5, and it is decreased to 82% reaching pH 11.5; however, the appearance of further minor peaks at pH > 9.8 indicates the presence of other species in low fraction. The same picture is seen when the changes of the CH3 peaks are considered (Figure S4), and only the peak of the CH-COOH proton was sensitive to the first deprotonation process at pH < 3, which confirms that pK1 of Pro-SISC-Me applies to COOH.
The ^1H NMR studies for the ligands were carried out on a Bruker Ultrashield 500 Plus instrument (Billerica, MA, USA). DSS was used as an internal NMR standard and WATERGATE water suppression pulse scheme was used. Spectra were recorded in 10% (v/v) D2O/H2O or in 30% (v/v) DMSO-d6/H2O solvent mixtures in a concentration of 1 mM, respectively, at ionic strength of 0.10 M (KCl).

Where [4] appears, read: Pro-SISC-Me, H2O, major species (E isomer).

Take `Cc1cc(C=NNC(=N)N)c(O)c(CN2CCCC2C(=O)O)c1` (stereo not shown) [Pro-SISC-Me]: in series [1], the “logβ [CuLH−1]” value is 6.50 and the “logβ [CuL]+” value is reported as 14.78. Besides, in series [2] (30% DMSO/H2O), the “pK1 (H3L2+)” value is on record as 1.80 ± 0.08, the “pK2 (H2L+)” value is 7.08 ± 0.02 and the “pK3 (HL)” value came out at 9.91 ± 0.02. For the same compound, in series [2] (H2O, 25 °C, I = 0.10 M (KCl)), the “pK1 (H3L2+)” value is listed as 2.52 ± 0.08, the “pK2 (H2L+)” value stood at 7.25 ± 0.06 and the “pK3 (HL)” value was determined as 9.61 ± 0.05. For the same compound, in series [2], the “fraction present as H2L+ at pH 7.4” value stood at 33% and the “fraction present as HL at pH 7.4” value was determined as 67%. In addition, in series [3] (setting [4]), the “pK1 (H3L2+)” value is ≤2.5 ^c, the “pK2 (H2L+)” value is 7.25 ± 0.03 ^c and the “pK3 (HL)” value is given as 9.75 ± 0.03 ^c. For the same compound, the pKa in series [3] (water, only one pKa could be determined, read-out: pKa of the minor (Z) isomer) worked out at 7.55.

Consider `N=C(N)NN=Cc1ccccc1O` [SISC, 2-(2-hydroxybenzylidene)hydrazinecarboximidamide], for which the “pK1 (H2L+)” value was found to be 7.62 ± 0.03 in series [2] (30% DMSO/H2O); 7.64 ± 0.09 in series [2] (H2O, 25 °C, I = 0.10 M (KCl)); 7.68 ± 0.03 in series [3] (SISC, 30% DMSO/H2O). Besides, the “pK2 (HL)” value in series [2] (30% DMSO/H2O) was found to be 10.63 ± 0.02; in series [2] (H2O, 25 °C, I = 0.10 M (KCl)) it was 9.96 ± 0.09; in series [3] (SISC, 30% DMSO/H2O) it was 10.72 ± 0.03. Also, in series [2], the “fraction present as H2L+ at pH 7.4” value is recorded as 64%. For the same compound, in series [2], the “fraction present as HL at pH 7.4” value was determined as 36%.
